Test results from ChEMBL document CHEMBL1201862, “PubChem BioAssay data set” (2004).
Where a name gives a salt, the structure may show the parent alone.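 Grown in 96-well plates, cells were treated for 48 hours with each compound at five concentrations. Insufficient inhibition: endpoint recorded as highest concentration tested. Here, GI50 denotes the concentration required for 50% inhibition of growth.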 The source made the active and inactive calls. Cut-off read from the data, not from the text of the source: active = GI50 up to about 1.1 µM and inactive = higher.

Legend:
Test in all cases: NCI anticancer screen, dose series, 48 h
OVCAR-4 = test system: OVCAR-4
SF-268 = test system: SF-268
HOP-92 = test system: HOP-92
SK-MEL-28 = test system: SK-MEL-28
SN12C = test system: SN12C
COLO 205 = test system: COLO 205
NCI/ADR-RES = test system: NCI/ADR-RES
EKVX = test system: EKVX
KM12 = test system: KM12
K562 = test system: K562
MCF7 = test system: MCF7
MDA-MB-231 = test system: MDA-MB-231
T47D = test system: T47D
IGROV-1 = test system: IGROV-1
CAKI-1 = test system: CAKI-1
HL-60 = test system: HL-60
HT-29 = test system: HT-29
PC-3 = test system: PC-3
SNB-19 = test system: SNB-19

Measured: GI50

O=C1CCCC(=O)N1n1c(Cc2ccccc2)n[nH]c1=O
inactive: OVCAR-4 > 100 µM | SF-268 > 100 µM | HOP-92 > 100 µM | SK-MEL-28 > 100 µM | SN12C > 100 µM | COLO 205 > 100 µM | NCI/ADR-RES > 100 µM | EKVX > 100 µM | KM12 > 100 µM | K562 > 100 µM | MCF7 > 100 µM | MDA-MB-231 > 100 µM | T47D > 100 µM | IGROV-1 > 100 µM | CAKI-1 > 100 µM | HL-60 > 100 µM | HT-29 > 100 µM | PC-3 > 100 µM

COC(=O)C(N)CCCC(N)C(=O)NC(C)C(=O)NC(CCC(=O)NCCNCCNc1c2ccccc2nc2cccc([N+](=O)[O-])c12)C(N)=O (stereo unspecified)
inactive: OVCAR-4 2.16 µM | SF-268 2.44 µM | HOP-92 4.83 µM | SK-MEL-28 16.6 µM | SN12C 12.8 µM | COLO 205 6.28 µM | NCI/ADR-RES 80.5 µM | EKVX 10.2 µM | KM12 10.5 µM | K562 3.13 µM | MCF7 3.89 µM | MDA-MB-231 16.9 µM | T47D 5.06 µM | IGROV-1 4.6 µM | SNB-19 18.5 µM | CAKI-1 27.9 µM | HT-29 13.7 µM | PC-3 4.79 µM

COc1ccc(/N=N/c2c(C)c(C#N)c(=S)n(C3OC(COC(C)=O)C(OC(C)=O)C(OC(C)=O)C3OC(C)=O)c2C)cc1 (stereo unspecified)
inactive: OVCAR-4 > 100 µM | SF-268 > 100 µM | HOP-92 24.6 µM | SK-MEL-28 > 100 µM | SN12C > 100 µM | COLO 205 > 100 µM | NCI/ADR-RES > 100 µM | KM12 > 100 µM | K562 > 100 µM | MCF7 > 100 µM | MDA-MB-231 21.7 µM | T47D > 100 µM | IGROV-1 > 100 µM | SNB-19 > 100 µM | CAKI-1 > 100 µM | HL-60 > 100 µM | HT-29 > 100 µM | PC-3 > 100 µM

COC(=O)[C@H](Cc1ccccc1)NC(=O)OCC1OC(n2cc(C)c(=O)[nH]c2=O)CC1N=[N+]=[N-] (stereo partly specified)
inactive: OVCAR-4 > 100 µM | SF-268 > 100 µM | HOP-92 > 100 µM | SN12C > 100 µM | COLO 205 > 100 µM | NCI/ADR-RES > 100 µM | EKVX > 100 µM | KM12 > 100 µM | K562 > 100 µM | MCF7 > 100 µM | MDA-MB-231 > 100 µM | T47D > 100 µM | IGROV-1 > 100 µM | SNB-19 > 100 µM | CAKI-1 > 100 µM | HL-60 > 100 µM | HT-29 > 100 µM | PC-3 > 100 µM

OCCN(CCO)c1ccc2c(c1)Cc1ccccc1-2
inactive: OVCAR-4 57.1 µM | SF-268 26.2 µM | HOP-92 21.9 µM | SK-MEL-28 64.3 µM | SN12C 52.1 µM | COLO 205 18.4 µM | NCI/ADR-RES 46.8 µM | EKVX 43.1 µM | KM12 38.3 µM | K562 34 µM | MCF7 24.5 µM | MDA-MB-231 34 µM | T47D 13.5 µM | SNB-19 > 100 µM | CAKI-1 10.3 µM | HL-60 41.7 µM | HT-29 18.8 µM | PC-3 42.6 µM

Cn1c(-c2ccco2)ccc1-c1ccc(C=O)o1
inactive: OVCAR-4 56.4 µM | HOP-92 31 µM | SK-MEL-28 48.6 µM | SN12C 77.6 µM | COLO 205 > 100 µM | NCI/ADR-RES 33 µM | EKVX 48.8 µM | KM12 > 100 µM | K562 37.5 µM | MCF7 30.5 µM | MDA-MB-231 79.1 µM | T47D 38.1 µM | IGROV-1 38.2 µM | SNB-19 > 100 µM | CAKI-1 13 µM | HL-60 21.5 µM | HT-29 44.9 µM | PC-3 > 100 µM

Oc1ccc(C(O)C2CCCCN2)cc1O (stereo unspecified) [RIMITEROL HYDROBROMIDE]
inactive: OVCAR-4 > 100 µM | SF-268 > 100 µM | HOP-92 > 100 µM | SK-MEL-28 > 100 µM | SN12C > 100 µM | COLO 205 > 100 µM | NCI/ADR-RES > 100 µM | EKVX > 100 µM | KM12 > 100 µM | K562 > 100 µM | MCF7 > 100 µM | MDA-MB-231 > 100 µM | T47D 23.8 µM | IGROV-1 > 100 µM | SNB-19 > 100 µM | CAKI-1 > 100 µM | HT-29 > 100 µM | PC-3 > 100 µM
